According to ChEMBL document CHEMBL4351030, “Synthesis and biological evaluation of 3-carbamate smilagenin derivatives as potential neuroprotective agents” (2019):
Calls of active or inactive are those of the source. The rule behind the calls is not given here.

Columns and labels:
SH-SY5Y [1] = assay: Neuroprotective activity against H2O2-induced oxidative stress in human SH-SY5Y cells assessed as cell viability at 10 uM preincubated for 2 hrs followed by H2O2 stimulation for 30 mins followed by further incubation for 24 hrs by MTT assay relative to control; type: functional; settings: for viability at 10 µM: read-out: Activity
RAW264.7 = assay: Neuroprotective activity against LPS-induced oxidative stress in mouse RAW264.7 cells assessed as reduction in NO production at 10 uM preincubated for 30 mins followed by LPS stimulation for 20 hrs by Griess reagent based microplate reader assay relative to control; type: functional
SH-SY5Y [2] = assay: Neuroprotective activity against oxygen-glucose deprivation-induced cell damage in human SH-SY5Y cells assessed as increase in cell viability measured after 5.5 hrs of post OGD challenge by MTT assay; type: functional, cell-based
SH-SY5Y [3] = assay: Neuroprotective activity against H2O2-induced oxidative stress in human SH-SY5Y cells assessed as cell viability at 1 mM preincubated for 2 hrs followed by H2O2 stimulation for 30 mins followed by further incubation for 24 hrs by MTT assay relative to control; type: functional; settings: read-out: Activity

What does the source list for `C[C@@H]1CC[C@@]2(OC1)O[C@H]1C[C@H]3[C@@H]4CC[C@@H]5C[C@@H](OC(=O)N6CCN(Cc7ccccc7)CC6)CC[C@]5(C)[C@H]4CC[C@]3(C)[C@H]1[C@@H]2C`?
viability at 10 µM (SH-SY5Y [1]): 36.9%; inhibition at 10 µM (RAW264.7): 18.3%; Activity (SH-SY5Y [2]): Active

What does the source list for `C[C@@H]1CC[C@@]2(OC1)O[C@H]1C[C@H]3[C@@H]4CC[C@@H]5C[C@@H](OC(=O)N6CCN(Cc7ccc(Cl)cc7)CC6)CC[C@]5(C)[C@H]4CC[C@]3(C)[C@H]1[C@@H]2C`?
viability at 10 µM (SH-SY5Y [1]): 34.8%; inhibition at 10 µM (RAW264.7): 15.2%; Activity (SH-SY5Y [2]): Active

How did the viability at 10 µM (SH-SY5Y [1]) turn out when `C[C@@H]1CC[C@@]2(OC1)O[C@H]1C[C@H]3[C@@H]4CC[C@@H]5C[C@@H](O)CC[C@]5(C)[C@H]4CC[C@]3(C)[C@H]1[C@@H]2C` was run?
The viability at 10 µM was 3.5%.

How did the viability at 10 µM (SH-SY5Y [1]) turn out when `C[C@@H]1CC[C@@]2(OC1)O[C@H]1C[C@H]3[C@@H]4CC[C@@H]5C[C@@H](OC(=O)N(C)C)CC[C@]5(C)[C@H]4CC[C@]3(C)[C@H]1[C@@H]2C` was run?
The viability at 10 µM was 6.3%.

What does the source list for `Cc1ccc(CNC(=O)O[C@H]2CC[C@@]3(C)[C@H](CC[C@@H]4[C@@H]3CC[C@]3(C)[C@@H]5[C@H](C[C@@H]43)O[C@]3(CC[C@@H](C)CO3)[C@H]5C)C2)cc1`?
viability at 10 µM (SH-SY5Y [1]): 29.2%; inhibition at 10 µM (RAW264.7): 6.8%

Which Activity (SH-SY5Y [1]) does the source give for `C[C@@H]1CC[C@@]2(OC1)O[C@H]1C[C@H]3[C@@H]4CC[C@@H]5C[C@@H](OC(=O)N6CCN(C)CC6)CC[C@]5(C)[C@H]4CC[C@]3(C)[C@H]1[C@@H]2C` here?
Its Activity is “inactive”.

Which viability at 1000 µM (SH-SY5Y [3]) does the source give for `CC(=O)N[C@@H](CS)C(=O)O` [ACETYLCYSTEINE] here?
Its viability at 1000 µM is 37.1%.

With `CC(C)CNC(=O)O[C@H]1CC[C@@]2(C)[C@H](CC[C@@H]3[C@@H]2CC[C@]2(C)[C@@H]4[C@H](C[C@@H]32)O[C@]2(CC[C@@H](C)CO2)[C@H]4C)C1` as the molecule, how does the viability at 10 µM (SH-SY5Y [1]) read?
The viability at 10 µM was 9.2%.

With `C[C@@H]1CC[C@@]2(OC1)O[C@H]1C[C@H]3[C@@H]4CC[C@@H]5C[C@@H](OC(=O)NCc6ccccc6)CC[C@]5(C)[C@H]4CC[C@]3(C)[C@H]1[C@@H]2C` as the molecule, how does the viability at 10 µM (SH-SY5Y [1]) read?
Its viability at 10 µM is 5.8%.

What does the source list for `C[C@@H]1CC[C@@]2(OC1)O[C@H]1C[C@H]3[C@@H]4CC[C@@H]5C[C@@H](OC(=O)N6CCN(Cc7ccc(C#N)cc7)CC6)CC[C@]5(C)[C@H]4CC[C@]3(C)[C@H]1[C@@H]2C`?
viability at 10 µM (SH-SY5Y [1]): 40.5%; inhibition at 10 µM (RAW264.7): 23.5%; Activity (SH-SY5Y [2]): Active

`C[C@@H]1CC[C@@]2(OC1)O[C@H]1C[C@H]3[C@@H]4CC[C@@H]5C[C@@H](OC(=O)NCc6ccc(Cl)cc6)CC[C@]5(C)[C@H]4CC[C@]3(C)[C@H]1[C@@H]2C` was tested. Which viability at 10 µM (SH-SY5Y [1]) did it give?
Its viability at 10 µM is 45.5%.

And the inhibition at 10 µM (RAW264.7)?
The inhibition at 10 µM was 17.6%.

What about the Activity (SH-SY5Y [2]) of the same molecule?
Its Activity is “Active”.

With `C[C@@H]1CC[C@@]2(OC1)O[C@H]1C[C@H]3[C@@H]4CC[C@@H]5C[C@@H](OC(=O)N6CCN(Cc7ccccc7O)CC6)CC[C@]5(C)[C@H]4CC[C@]3(C)[C@H]1[C@@H]2C` as the molecule, how does the viability at 10 µM (SH-SY5Y [1]) read?
Its viability at 10 µM is 38.4%.

What about the inhibition at 10 µM (RAW264.7) of the same molecule?
Its inhibition at 10 µM is 7.02%.

Which results are given for `COc1ccc(CNC(=O)O[C@H]2CC[C@@]3(C)[C@H](CC[C@@H]4[C@@H]3CC[C@]3(C)[C@@H]5[C@H](C[C@@H]43)O[C@]3(CC[C@@H](C)CO3)[C@H]5C)C2)cc1`?
viability at 10 µM (SH-SY5Y [1]): 17.9%; inhibition at 10 µM (RAW264.7): 9.2%

How did the Activity (SH-SY5Y [1]) turn out when `C[C@@H]1CC[C@@]2(OC1)O[C@H]1C[C@H]3[C@@H]4CC[C@@H]5C[C@@H](OC(=O)N6CCN(CCO)CC6)CC[C@]5(C)[C@H]4CC[C@]3(C)[C@H]1[C@@H]2C` was run?
The Activity was “inactive”.

How did the viability at 10 µM (SH-SY5Y [1]) turn out when `COc1cc(CN2CCN(C(=O)O[C@H]3CC[C@@]4(C)[C@H](CC[C@@H]5[C@@H]4CC[C@]4(C)[C@@H]6[C@H](C[C@@H]54)O[C@]4(CC[C@@H](C)CO4)[C@H]6C)C3)CC2)ccc1O` was run?
Its viability at 10 µM is 10.3%.

With `COc1ccc(CN2CCN(C(=O)O[C@H]3CC[C@@]4(C)[C@H](CC[C@@H]5[C@@H]4CC[C@]4(C)[C@@H]6[C@H](C[C@@H]54)O[C@]4(CC[C@@H](C)CO4)[C@H]6C)C3)CC2)cc1` as the molecule, how does the viability at 10 µM (SH-SY5Y [1]) read?
The viability at 10 µM was 4.8%.
